This is an account of results in patent US11186573B2, “Inhibitors of ROR gamma” (Vitae Pharmaceuticals, LLC, priority 2017, dated 2021).

What all share (format): physicochemical
Data set [1] can be described thus: Oxidation/degradation during salt screening and salt preparation. To be noted: for degradation during preparation: salt preparation / air-drying. How it is done: A salt/co-crystal screening was conducted under 127 conditions with 20 salt/co-crystal co-formers and seven solvent systems. For each condition, approximately 20 mg of Compound 1 was dispersed in the selected solvent in a glass vial and then salt/co-crystal co-former was added. Observation of slurries were followed by isolation and analysis of the resulting solids. Even though some crystalline solids were isolated and analyzed by XRPD, discoloration, possibly associated with decomposition was also observed (Table 1). Salt-screening experiments yielding a unique XRPD pattern were analyzed by HPLC-UV and were all determined to be primarily composed of degradants.
With the exception of the HBr salt, salt screening was unsuccessful in identifying further options for new forms of Compound 1 because of degradation. […] For example, solvent systems in which Compound 1 has limited solubility were chosen for formation of the HCl and sulfates salts to limit oxidation, while providing enough solubility to promote conversion to crystalline salts. However, this approach is time consuming and not favorable for large scale manufacturing methods.

The nature of data set [2]: Dynamic Vapor Sorption (DVS) moisture uptake.
Data set [3] is described as follows: Solubility in re-slurry solvents.
Data set [4] can be described thus: Slurry in acetone/water (1:1 v/v), hydrate stability at water activity. To be noted: aw=0.91, acetone/water 1:1 v/v, slurried one week at ambient. An excerpt: Form D can also isolated from the amorphous bis-hydrogen bromide salt form of Compound 1 in a slurry experiment comprising acetone/water (1:1 v/v). For example, a saturated solution the amorphous bis-hydrogen bromide salt form om acetone/water (1:1 v/v) was slurried for one week at ambient and the solid was harvested to obtain Form D. The water activity (aw) of an equal volume mixture of acetone and water is 0.91. See SSCI internal report, Water Activity Calculations using UNIFAC Calculator, SR-20150515.01, dated Jul. 23, 2015. When solvent-free polymorphs are considered, the relative thermodynamic stability of two polymorphs is determined by the Gibbs free energy difference at a given temperature and pressure. However, when hydrate forms are considered, the water activity in the solvent contributes to the relative physical stability and thus, the resulting form. See Qu H, Louhi-Kultanen M, Kallas J. Solubility and stability of anhydrate/hydrate in solvent mixtures. Int J Pharm. 2006; 321:101-107 and Zhu H, Grant D J W. Influence of water activity in organic solvent+water mixtures on the nature of the crystallizing drug phase. 2. Ampicillin. Int J Pharm. 1996; 139:33-43.

“Also recorded” adds a separate entry of the source. Structures can show the parent of a compound that is named as a salt.

Turning to `CCS(=O)(=O)c1ccc(CNC(=O)c2cnc3c(c2)CN(C[C@H]2CC[C@H](C(F)(F)F)CC2)[C@H]3C(C)C)nc1` [Compound 1], in data set [1] (particularly in solution), the susceptibility to oxidation result is “highly susceptible to oxidation”. For the molecule `CCS(=O)(=O)c1ccc(CNC(=O)c2cnc3c(c2)CN(C[C@H]2CC[C@H](C(F)(F)F)CC2)[C@H]3C(C)C)nc1` [Form D], the “moisture uptake compared with the other solid forms” value in data set [2] (DVS isotherm plots, FIG. 16 vs FIGS. 4, 8, 12) is recorded as “significantly less moisture update; also recorded: significantly less than the other forms”. Besides, the “solubility in isopropyl acetate/water mixture compared with heptane/water mixture” value in data set [3] is reported as “greater”. Moreover, in data set [3] (re-slurry solvents), the “solubility in IPAc compared with n-heptane” value is recorded as “slightly higher”. In addition, the “stability of the hydrate at water activity” value in data set [4] is reported as “stable”. For `CCS(=O)(=O)c1ccc(CNC(=O)c2cnc3c(c2)CN(C[C@H]2CC[C@H](C(F)(F)F)CC2)[C@H]3C(C)C)nc1` [bis-hydrogen bromide salt], the “weight change (moisture uptake)” value in data set [2] (DVS isotherm, FIG. 16) was at most 5%. In addition, the degradation during preparation entry in data set [1] is on record as “did not degrade during preparation”. Regarding `Br.CCS(=O)(=O)c1ccc(CNC(=O)c2cnc3c(c2)CN(C[C@H]2CC[C@H](C(F)(F)F)CC2)[C@H]3C(C)C)nc1` [mono-hydrogen bromide salt], the “amount of water absorbed relative to the corresponding bis-hydrogen bromide form” value in data set [2] (DVS, FIGS. 8 and 16) is reported as “about twice the amount of water”. Besides, the degradation during preparation entry in data set [1] is reported as “did not degrade during preparation”. As for `O=S(=O)(O)O` [sulfate], in data set [1], the degradation during preparation entry is “less degradation than others”.

With adipic acid, the “composition of isolated salt-screening solid by HPLC-UV” value in data set [1] (salt/co-crystal screening of Compound 1) is “primarily degradants”.
